Assay results as given in the NIST ThermoML archive (doi:10.1016/j.jct.2009.01.014).
Where “and” joins values, the source holds several entries; their conditions need not be identical. Identical values can stand only once.

Experiment: molar heat capacity at constant pressure
Settings: 101.33 kPa, Vacuum adiabatic calorimetry

[Al+3].[Al+3].[Co+2].[O-2].[O-2].[O-2].[O-2] [aluminium cobalt oxide]
Settings	molar heat capacity at constant pressure
4.72 K, Crystal 2	0.13 J/K/mol
5 K, Crystal 2	0.187 J/K/mol
5.71 K, Crystal 2	0.32 J/K/mol
6 K, Crystal 2	0.323 J/K/mol
6.45 K, Crystal 2	0.6 J/K/mol
6.71 K, Crystal 2	0.26 J/K/mol
6.88 K, Crystal 2	0.73 J/K/mol
7 K, Crystal 2	0.905 J/K/mol
7.21 K, Crystal 2	0.74 J/K/mol
7.25 K, Crystal 2	1.59 J/K/mol
7.46 K, Crystal 2	0.83 J/K/mol
7.65 K, Crystal 2	2.56 J/K/mol
7.66 K, Crystal 2	0.96 J/K/mol
7.81 K, Crystal 2	1.14 J/K/mol
7.85 K, Crystal 2	0.98 J/K/mol
7.94 K, Crystal 2	1.38 J/K/mol
8 K, Crystal 2	3.8 J/K/mol and 2.02 J/K/mol
8.05 K, Crystal 2	1.67 J/K/mol
8.17 K, Crystal 2	2 J/K/mol
8.29 K, Crystal 2	2.32 J/K/mol
8.32 K, Crystal 2	6.21 J/K/mol
8.47 K, Crystal 2	1.8 J/K/mol
8.62 K, Crystal 2	3.37 J/K/mol
8.66 K, Crystal 2	6.33 J/K/mol
8.71 K, Crystal 2	5.19 J/K/mol and 7.23 J/K/mol
8.98 K, Crystal 2	3.72 J/K/mol
9.28 K, Crystal 1	4.54 J/K/mol
9.32 K, Crystal 1	4.26 J/K/mol
9.33 K, Crystal 1	3.86 J/K/mol
9.95 K, Crystal 1	4.26 J/K/mol
10 K, Crystal 1	4.27 J/K/mol
10.45 K, Crystal 1	4.03 J/K/mol
10.5 K, Crystal 1	4.18 J/K/mol
10.76 K, Crystal 1	4.31 J/K/mol
11.38 K, Crystal 1	4.5 J/K/mol
11.87 K, Crystal 1	4.28 J/K/mol
12.04 K, Crystal 1	4.33 J/K/mol
12.41 K, Crystal 1	4.39 J/K/mol
12.96 K, Crystal 1	4.32 J/K/mol
13.36 K, Crystal 1	4.4 J/K/mol
13.69 K, Crystal 1	4.41 J/K/mol
13.73 K, Crystal 1	4.37 J/K/mol
14.57 K, Crystal 1	4.32 J/K/mol
14.84 K, Crystal 1	4.36 J/K/mol
15 K, Crystal 1	4.19 J/K/mol
15.02 K, Crystal 1	4.19 J/K/mol
15.35 K, Crystal 1	4.45 J/K/mol
16.08 K, Crystal 1	4.3 J/K/mol
16.27 K, Crystal 1	4.22 J/K/mol
16.99 K, Crystal 1	4.37 J/K/mol
17.59 K, Crystal 1	4.22 J/K/mol
17.64 K, Crystal 1	4.2 J/K/mol
18.61 K, Crystal 1	4.3 J/K/mol
18.8 K, Crystal 1	4.15 J/K/mol
19.9 K, Crystal 1	4.28 J/K/mol
20 K, Crystal 1	4.12 J/K/mol
20.2 K, Crystal 1	4.24 J/K/mol
20.34 K, Crystal 1	4.12 J/K/mol
20.92 K, Crystal 1	4.12 J/K/mol
21.76 K, Crystal 1	4.2 J/K/mol
21.88 K, Crystal 1	4.24 J/K/mol
22.65 K, Crystal 1	4.13 J/K/mol
23.29 K, Crystal 1	4.19 J/K/mol
24.79 K, Crystal 1	4.18 J/K/mol
24.8 K, Crystal 1	4.22 J/K/mol
25 K, Crystal 1	4.19 J/K/mol
26.22 K, Crystal 1	4.35 J/K/mol
26.96 K, Crystal 1	4.24 J/K/mol
27.5 K, Crystal 1	4.17 J/K/mol
28.68 K, Crystal 1	4.27 J/K/mol
29.17 K, Crystal 1	4.26 J/K/mol
29.76 K, Crystal 1	4.34 J/K/mol
30 K, Crystal 1	4.35 J/K/mol
31.39 K, Crystal 1	4.52 J/K/mol
31.42 K, Crystal 1	4.55 J/K/mol
33.59 K, Crystal 1	4.79 J/K/mol
34.14 K, Crystal 1	4.77 J/K/mol
35 K, Crystal 1	4.98 J/K/mol
35.82 K, Crystal 1	5.1 J/K/mol
36.43 K, Crystal 1	5.08 J/K/mol
38.1 K, Crystal 1	5.31 J/K/mol
38.48 K, Crystal 1	5.3 J/K/mol
40 K, Crystal 1	5.71 J/K/mol
40.31 K, Crystal 1	5.7 J/K/mol
40.44 K, Crystal 1	5.8 J/K/mol
42.02 K, Crystal 1	6.02 J/K/mol
42.79 K, Crystal 1	6.32 J/K/mol
43.71 K, Crystal 1	6.48 J/K/mol
45 K, Crystal 1	6.87 J/K/mol
45.17 K, Crystal 1	6.92 J/K/mol
45.43 K, Crystal 1	6.93 J/K/mol
47.17 K, Crystal 1	7.42 J/K/mol
47.58 K, Crystal 1	7.59 J/K/mol
48.91 K, Crystal 1	7.98 J/K/mol
50 K, Crystal 1	8.31 J/K/mol
50.03 K, Crystal 1	8.32 J/K/mol
50.67 K, Crystal 1	8.52 J/K/mol
52.44 K, Crystal 1	9.07 J/K/mol
52.51 K, Crystal 1	9.11 J/K/mol
54.22 K, Crystal 1	9.63 J/K/mol
55 K, Crystal 1	9.96 J/K/mol
55.03 K, Crystal 1	9.97 J/K/mol
56.02 K, Crystal 1	10.33 J/K/mol
57.57 K, Crystal 1	10.87 J/K/mol
57.82 K, Crystal 1	10.96 J/K/mol
59.64 K, Crystal 1	11.67 J/K/mol
60 K, Crystal 1	11.79 J/K/mol
60.15 K, Crystal 1	11.85 J/K/mol
61.46 K, Crystal 1	12.35 J/K/mol
62.75 K, Crystal 1	12.88 J/K/mol
63.3 K, Crystal 1	13.11 J/K/mol
65 K, Crystal 1	13.79 J/K/mol
65.14 K, Crystal 1	13.85 J/K/mol
65.38 K, Crystal 1	13.94 J/K/mol
66.99 K, Crystal 1	14.6 J/K/mol
68.03 K, Crystal 1	15.06 J/K/mol
68.85 K, Crystal 1	15.41 J/K/mol
70 K, Crystal 1	15.92 J/K/mol
70.7 K, Crystal 1	16.23 J/K/mol
70.71 K, Crystal 1	16.22 J/K/mol
72.59 K, Crystal 1	17.07 J/K/mol
73.39 K, Crystal 1	17.44 J/K/mol
74.46 K, Crystal 1	17.93 J/K/mol
75 K, Crystal 1	18.18 J/K/mol
76.1 K, Crystal 1	18.69 J/K/mol
76.35 K, Crystal 1	18.81 J/K/mol
78.23 K, Crystal 1	19.67 J/K/mol
78.83 K, Crystal 1	19.98 J/K/mol
80 K, Crystal 1	20.58 J/K/mol
80.13 K, Crystal 1	20.6 J/K/mol
81.57 K, Crystal 1	21.31 J/K/mol
82.03 K, Crystal 1	21.53 J/K/mol
83.93 K, Crystal 1	22.47 J/K/mol
84.33 K, Crystal 1	22.66 J/K/mol
85 K, Crystal 1	23 J/K/mol
85.84 K, Crystal 1	23.42 J/K/mol
86.76 K, Crystal 1	23.89 J/K/mol
87.1 K, Crystal 1	24.07 J/K/mol
87.75 K, Crystal 1	24.35 J/K/mol
89.66 K, Crystal 1	25.35 J/K/mol
89.88 K, Crystal 1	25.48 J/K/mol
90 K, Crystal 1	25.54 J/K/mol
90.38 K, Crystal 1	25.72 J/K/mol
91.58 K, Crystal 1	26.35 J/K/mol
92.68 K, Crystal 1	26.93 J/K/mol
93.5 K, Crystal 1	27.35 J/K/mol
94.03 K, Crystal 1	27.61 J/K/mol
95 K, Crystal 1	28.14 J/K/mol
95.42 K, Crystal 1	28.36 J/K/mol
95.49 K, Crystal 1	28.4 J/K/mol
97.35 K, Crystal 1	29.35 J/K/mol
97.7 K, Crystal 1	29.56 J/K/mol
98.31 K, Crystal 1	29.91 J/K/mol
99.28 K, Crystal 1	30.41 J/K/mol
100 K, Crystal 1	30.76 J/K/mol
101.14 K, Crystal 1	31.29 J/K/mol
101.4 K, Crystal 1	31.39 J/K/mol
105 K, Crystal 1	33.58 J/K/mol
105.11 K, Crystal 1	33.64 J/K/mol
108.84 K, Crystal 1	35.84 J/K/mol
110 K, Crystal 1	36.47 J/K/mol
112.59 K, Crystal 1	37.85 J/K/mol
116.35 K, Crystal 1	39.89 J/K/mol
118.19 K, Crystal 1	40.87 J/K/mol
120 K, Crystal 1	41.53 J/K/mol
120.13 K, Crystal 1	41.61 J/K/mol
121.04 K, Crystal 1	42.24 J/K/mol
123.91 K, Crystal 1	44.18 J/K/mol and 44.16 J/K/mol
126.79 K, Crystal 1	45.8 J/K/mol
127.71 K, Crystal 1	46.35 J/K/mol
129.67 K, Crystal 1	47.46 J/K/mol
130 K, Crystal 1	47.65 J/K/mol
131.52 K, Crystal 1	48.53 J/K/mol
132.55 K, Crystal 1	49.08 J/K/mol
135.33 K, Crystal 1	50.7 J/K/mol
135.44 K, Crystal 1	50.72 J/K/mol
138.34 K, Crystal 1	52.33 J/K/mol
139.16 K, Crystal 1	52.77 J/K/mol
140 K, Crystal 1	53.26 J/K/mol
141.23 K, Crystal 1	53.98 J/K/mol
142.99 K, Crystal 1	55.02 J/K/mol
144.14 K, Crystal 1	55.61 J/K/mol
